Source: patent US11059786B2, “Aminopyridine compounds and methods for the preparation and use thereof” (Cortexyme, Inc., priority 2017, dated 2021)

The molecules below were run against T1, RgpB (Porphyromonas gingivalis, UniProt P95493) (assay: RgpB inhibition, fluorogenic assay). Conditions: Activity (RgpB IC50), 0.02 nM RgpB, 10 μM Boc-Phe-Ser-Arg-MCA, 90 minutes, 37° C., pH=7.5.
T1 construct: 0.02 nM RgpB, isolated from culture of Porphyromonas gingivalis; endogenous in cells
T1 sequence (P95493 230-664): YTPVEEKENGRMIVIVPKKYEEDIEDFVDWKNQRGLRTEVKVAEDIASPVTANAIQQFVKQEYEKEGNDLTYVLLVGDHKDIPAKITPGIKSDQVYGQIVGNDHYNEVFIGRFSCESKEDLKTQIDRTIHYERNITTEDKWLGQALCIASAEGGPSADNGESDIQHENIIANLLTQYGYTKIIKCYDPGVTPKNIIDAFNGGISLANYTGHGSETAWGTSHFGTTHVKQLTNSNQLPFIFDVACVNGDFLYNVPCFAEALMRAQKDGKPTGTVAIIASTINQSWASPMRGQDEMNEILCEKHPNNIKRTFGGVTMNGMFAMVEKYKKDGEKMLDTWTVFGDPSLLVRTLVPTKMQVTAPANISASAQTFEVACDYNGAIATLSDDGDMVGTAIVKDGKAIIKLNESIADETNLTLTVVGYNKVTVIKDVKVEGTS
Assay type: biochemical
Experimental: The capacities of compounds of the present invention to inhibit the activity of RgpB were measured in a fluorogenic assay similar to those described in Barret Biochemical Journal. 1980, 187(3), 909. The specific assay conditions were as follows. Buffer: pH=7.5, 100 mM Tris-HCl, 75 mM NaCl, 2.5 mM CaCl2, 10 mM cysteine, 1% DMSO after all additions. Protein: 0.02 nM RgpB, isolated from culture of Porphyromonas gingivalis, as described in Pike et al. J. Biol. Chem. 1994, 269(1), 406, and Potempa and Nguyen. Current Protocols in Protein Scienc. 2007, 21.20.1-21.20.27. Fluorogenic substrate: 10 μM Boc-Phe-Ser-Arg-MCA. Time=90 minutes. Temperature=37° C. Each compound: 10 concentrations, starting at either 100 μM or 100 nM, with lower concentrations generated by serial 3-fold dilutions. By testing a range of concentrations for each compound, the concentration required to inhibit the activity of RgpB by 50% (the “IC50”) was determined.
Molecule `CN(C#N)c1ccc2ccnc(N)c2c1` [Compound 1, N-(1-aminoisoquinolin-7-yl)-N-methylcyanamide] has an IC50 of over 100000 nM.
`N#CN1CCC(Oc2ccnc(N)c2)C1` (stereo not drawn) [Compound 2, 3-((2-aminopyridin-4-yl)oxy)pyrrolidine-1-carbonitrile] was tested, and the IC50 was 100 to 1000 nM.
Molecule `N#CN1CCCC1COc1ccnc(N)c1` (stereo not drawn) [Compound 3, 2-(((2-aminopyridin-4-yl)oxy)methyl)pyrrolidine-1-carbonitrile] has an IC50 of 100 to 1000 nM.
For `CN(C#N)Cc1cc2c(N)nccc2o1` [Compound 4, N-((4-aminofuro[3,2-c]pyridin-2-yl)methyl)-N-methylcyanamide], the IC50 was 10000 to 100000 nM.
Molecule `CC(C)N(C#N)CCc1ccnc(N)c1` [Compound 5, N-(2-(2-aminopyridin-4-yl)ethyl)-N-isopropylcyanamide] has an IC50 of 10000 to 100000 nM.
`CC(C)N(C#N)CCCc1ccnc(N)c1` [Compound 6, N-(3-(2-aminopyridin-4-yl)propyl)-N-isopropylcyanamide] gave an IC50 of 10000 to 100000 nM.
`N#CN1CC(Oc2ccnc(N)c2)C1` [Compound 7, 3-((2-aminopyridin-4-yl)oxy)azetidine-1-carbonitrile] gave an IC50 of over 100000 nM.
`N#CN1CCC(Oc2ccnc(N)c2)CC1` [Compound 8, 4-((2-aminopyridin-4-yl)oxy)piperidine-1-carbonitrile] showed an IC50 of over 100000 nM.
`N#CN1CCCC(Oc2ccnc(N)c2)C1` (stereo not drawn) [Compound 9, 3-((2-aminopyridin-4-yl)oxy)piperidine-1-carbonitrile] gave an IC50 of 100 to 1000 nM.
`N#CN1CC(COc2ccnc(N)c2)C1` [Compound 10, 3-(((2-aminopyridin-4-yl)oxy)methyl)azetidine-1-carbonitrile] gave an IC50 of over 100000 nM.
`N#CN1CCC1COc1ccnc(N)c1` (stereo not drawn) [Compound 11, 2-(((2-aminopyridin-4-yl)oxy)methyl)azetidine-1-carbonitrile] gave an IC50 of over 100000 nM.
For `N#CN1CCCCC1COc1ccnc(N)c1` (stereo not drawn) [Compound 12, 2-(((2-aminopyridin-4-yl)oxy)methyl)piperidine-1-carbonitrile], the IC50 was 100 to 1000 nM.
In the case of `CN(C#N)CCOc1ccnc(N)c1` [Compound 13, N-(2-((2-aminopyridin-4-yl)oxy)ethyl)-N-methylcyanamide], the IC50 is reported as 100 to 1000 nM.
With `CC(COc1ccnc(N)c1)N(C)C#N` (stereo not drawn) [Compound 14, N-(1-((2-aminopyridin-4-yl)oxy)propan-2-yl)-N-methylcyanamide] the IC50 was 100 to 1000 nM.
Molecule `CC(CN(C)C#N)Oc1ccnc(N)c1` (stereo not drawn) [Compound 15, N-(2-((2-aminopyridin-4-yl)oxy)propyl)-N-methylcyanamide] has an IC50 of 100 to 1000 nM.
In the case of `N#CN1CCCC1CCOc1ccnc(N)c1` (stereo not drawn) [Compound 16, 2-(2-((2-aminopyridin-4-yl)oxy)ethyl)pyrrolidine-1-carbonitrile], the IC50 is reported as 10000 to 100000 nM.
For `N#CN1CCC(CCOc2ccnc(N)c2)C1` (stereo not drawn) [Compound 17, 3-(2-((2-aminopyridin-4-yl)oxy)ethyl)pyrrolidine-1-carbonitrile], the IC50 was 1000 to 10000 nM.
`N#CN1CCCC1CCCOc1ccnc(N)c1` (stereo not drawn) [Compound 18, 2-(3-((2-aminopyridin-4-yl)oxy)propyl)pyrrolidine-1-carbonitrile] gave an IC50 of 10000 to 100000 nM.
With `N#CN1CCC[C@H]1COc1ccnc(N)c1` [Compound 19, (S)-2-(((2-aminopyridin-4-yl)oxy)methyl)pyrrolidine-1-carbonitrile] the IC50 was under 100 nM.
Molecule `N#CN1CCC[C@@H]1COc1ccnc(N)c1` [Compound 20, (R)-2-(((2-aminopyridin-4-yl)oxy)methyl)pyrrolidine-1-carbonitrile] has an IC50 of 1000 to 10000 nM.
With `N#CN1CCCC1CCc1ccnc(N)c1` (stereo not drawn) [Compound 21, 2-(2-(2-aminopyridin-4-yl)ethyl)pyrrolidine-1-carbonitrile] the IC50 was 100 to 1000 nM.
`CNc1cc(OCC2CCCN2C#N)ccn1` (stereo not drawn) [Compound 22, 2-(((2-(methylamino)pyridin-4-yl)oxy)methyl)pyrrolidine-1-carbonitrile] gave an IC50 of 100 to 1000 nM.
For `CN(C)c1cc(OCC2CCCN2C#N)ccn1` (stereo not drawn) [Compound 23, 2-(((2-(dimethylamino)pyridin-4-yl)oxy)methyl)pyrrolidine-1-carbonitrile], the IC50 was 10000 to 100000 nM.
`N#CN1c2ccccc2CC1COc1ccnc(N)c1` (stereo not drawn) [Compound 24, 2-(((2-aminopyridin-4-yl)oxy)methyl)indoline-1-carbonitrile] gave an IC50 of 10000 to 100000 nM.
`N#CN1Cc2ccccc2C1COc1ccnc(N)c1` (stereo not drawn) [Compound 25, 1-(((2-aminopyridin-4-yl)oxy)methyl)isoindoline-2-carbonitrile] was tested, and the IC50 was 100 to 1000 nM.
`CN(C#N)Cc1ccc2c(N)nccc2c1` [Compound 26, N-((1-aminoisoquinolin-6-yl)methyl)-N-methylcyanamide] showed an IC50 of 100 to 1000 nM.
Molecule `CN(C#N)c1ccccc1Oc1ccnc(N)c1` [Compound 27, N-(2-((2-aminopyridin-4-yl)oxy)phenyl)-N-methylcyanamide] has an IC50 of over 100000 nM.
`N#CN1CCC[C@H]1CSc1ccnc(N)c1` [Compound 28, (S)-2-(((2-aminopyridin-4-yl)thio)methyl)pyrrolidine-1-carbonitrile] was tested, and the IC50 was 1000 to 10000 nM.
For `Cc1cnc(N)cc1OC[C@@H]1CCCN1C#N` [Compound 29, (S)-2-(((2-amino-5-methylpyridin-4-yl)oxy)methyl)pyrrolidine-1-carbonitrile], the IC50 was 10000 to 100000 nM.
Work on `N#CN1CCC[C@H]1COc1cc(N)ncc1Br` [Compound 30, (S)-2-(((2-amino-5-bromopyridin-4-yl)oxy)methyl)pyrrolidine-1-carbonitrile] yielded an IC50 of 10000 to 100000 nM.
In the case of `N#CN1CCC[C@H]1C(O)Cc1ccnc(N)c1` (stereo partly drawn) [Compound 31, (2S)-2-(2-(2-aminopyridin-4-yl)-1-hydroxyethyl)pyrrolidine-1-carbonitrile], the IC50 is reported as over 100000 nM.
In the case of `N#CN1CCC[C@H]1/C=C/c1ccnc(N)c1` [Compound 32, (S,E)-2-(2-(2-aminopyridin-4-yl)vinyl)pyrrolidine-1-carbonitrile], the IC50 is reported as 100 to 1000 nM.
With `N#CN1CCN(c2ccnc(N)c2)CC1` [Compound 33, 4-(2-aminopyridin-4-yl)piperazine-1-carbonitrile] the IC50 was 1000 to 10000 nM.
Work on `CC(C)C(COc1ccnc(N)c1)N(C)C#N` (stereo not drawn) [Compound 34, N-(1-((2-aminopyridin-4-yl)oxy)-3-methylbutan-2-yl)-N-methylcyanamide] yielded an IC50 of 1000 to 10000 nM.
`CCC(COc1ccnc(N)c1)N(C)C#N` (stereo not drawn) [Compound 35, N-(1-((2-aminopyridin-4-yl)oxy)butan-2-yl)-N-methylcyanamide] showed an IC50 of 1000 to 10000 nM.
In the case of `CN(C#N)C(COc1ccnc(N)c1)c1ccccc1` (stereo not drawn) [Compound 36, N-(2-((2-aminopyridin-4-yl)oxy)-1-phenylethyl)-N-methylcyanamide], the IC50 is reported as 1000 to 10000 nM.
Work on `N#CN1CCCCC1c1ccc2c(N)nccc2c1` (stereo not drawn) [Compound 37, 2-(1-aminoisoquinolin-6-yl)piperidine-1-carbonitrile] yielded an IC50 of 100 to 1000 nM.
`N#CN1CCC(Sc2ccnc(N)c2)C1` (stereo not drawn) [Compound 38, 3-((2-aminopyridin-4-yl)thio)pyrrolidine-1-carbonitrile] was tested, and the IC50 was 10000 to 100000 nM.
Molecule `CC(C)N(C#N)CCOc1ccnc(N)c1` [Compound 39, N-(2-((2-aminopyridin-4-yl)oxy)ethyl)-N-isopropylcyanamide] has an IC50 of 10000 to 100000 nM.
Work on `N#CN(CCOc1ccnc(N)c1)C1CCCCC1` [Compound 40, N-(2-((2-aminopyridin-4-yl)oxy)ethyl)-N-cyclohexylcyanamide] yielded an IC50 of 10000 to 100000 nM.
`N#CN1CCC[C@H]1COc1cc(N)ncc1Cl` [Compound 41, (S)-2-(((2-amino-5-chloropyridin-4-yl)oxy)methyl)pyrrolidine-1-carbonitrile] showed an IC50 of 10000 to 100000 nM.
Molecule `N#CN1CCC[C@H]1COc1ccnc(N)c1Cl` [Compound 42, (S)-2-(((2-amino-3-chloropyridin-4-yl)oxy)methyl)pyrrolidine-1-carbonitrile] has an IC50 of 10000 to 100000 nM.
`N#CN1CCC[C@@H]1c1ccc2c(N)nccc2c1` [Compound 43, (R)-2-(1-aminoisoquinolin-6-yl)pyrrolidine-1-carbonitrile] was tested, and the IC50 was under 100 nM.
For `N#CN1CCC[C@H]1c1ccc2c(N)nccc2c1` [Compound 44, (S)-2-(1-aminoisoquinolin-6-yl)pyrrolidine-1-carbonitrile], the IC50 was 100 to 1000 nM.
`N#CN1CCCC1c1ccc2c(N)nccc2c1` (stereo not drawn) [Compound 45, 2-(1-aminoisoquinolin-6-yl)pyrrolidine-1-carbonitrile] showed an IC50 of under 100 nM.
`CC(c1ccc2c(N)nccc2c1)N(C)C#N` (stereo not drawn) [Compound 46, N-(1-(1-aminoisoquinolin-6-yl)ethyl)-N-methylcyanamide] showed an IC50 of 1000 to 10000 nM.
Work on `N#CN1CCC(COc2ccnc(N)c2)C1` (stereo not drawn) [Compound 47, 3-(((2-aminopyridin-4-yl)oxy)methyl)pyrrolidine-1-carbonitrile] yielded an IC50 of 1000 to 10000 nM.
For `CN(C#N)Cc1cc2ccnc(N)c2o1` [Compound 48, N-((7-aminofuro[2,3-c]pyridin-2-yl)methyl)-N-methylcyanamide], the IC50 was 100 to 1000 nM.
Work on `N#CN1C[C@H](O)C[C@@H]1c1ccc2c(N)nccc2c1` [Compound 49, (2R,4R)-2-(1-aminoisoquinolin-6-yl)-4-hydroxypyrrolidine-1-carbonitrile] yielded an IC50 of under 100 nM.
For `N#CN1C[C@@H](O)C[C@H]1c1ccc2c(N)nccc2c1` [Compound 50a, (2S,4S)-2-(1-aminoisoquinolin-6-yl)-4-hydroxypyrrolidine-1-carbonitrile], the IC50 was under 100 nM.
Work on `N#CN1C[C@@H](O)C[C@@H]1c1ccc2c(N)nccc2c1` [Compound 50b, (2R,4S)-2-(1-aminoisoquinolin-6-yl)-4-hydroxypyrrolidine-1-carbonitrile] yielded an IC50 of under 100 nM.
